# Reference: patent US6355799B1, “Substituted benzene compounds, process for their preparation, and herbicidal and defoliant compositions containing them” (ISK Americas Incorporated, priority 1997, dated 2002)
# Columns and labels:
# Assay type in all cases: in vivo
# [1] = tested on: redroot pigweed (Amaranthus retroflexus, AMARE); experiment: Pre-emerge test, greenhouse herbicide activity screening; settings: rated 14 days after application, 0 = no damage, 100 = complete death
# Summary of the method: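 Sandy loam pots; pre-emerge: sown 1 d pre-spray, surface-watered after, then bottom-watered. Post-emerge: sown 8–21 d before, 2–3 leaf stage, + 0.25% v/v NIS, bottom-watered. Acetone, 187 l/ha track spray, 15–1000 g ai/ha. 0–100 injury score, day 14.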
# [2] = tested on: velvetleaf (Abutilon theophrasti, ABUTH); experiment: as above; settings: rated 14 days after application, 0 = no damage, 100 = complete death
# Summary of the method: (§1)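 Herbicidal damage is scored 0 (none) to 100 (complete plant death) two weeks after a simulated field spray. Rates span 15–1000 g ai/ha, delivered in acetone at 187 l/ha. For post-emergence treatments, plants have 2–3 leaves and the spray carries 0.25% v/v non-ionic surfactant.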
# [3] = tested on: large crabgrass (Digitaria sanguinalis, DIGSA); experiment: as above; settings: rated 14 days after application, 0 = no damage, 100 = complete death
# Summary of the method: as §1
# [4] = tested on: common ragweed (Ambrosia artemisizfolia L., AMBEL); experiment: as above; settings: rated 14 days after application, 0 = no damage, 100 = complete death
# Summary of the method: as §1
# [5] = tested on: green foxtail (Setaria viridis, SETVI); experiment: as above; settings: rated 14 days after application, 0 = no damage, 100 = complete death
# Summary of the method: as §1
# [6] = tested on: ivyleaf morningglory (Ipomoea hederacea, IPOHE); experiment: as above; settings: rated 14 days after application, 0 = no damage, 100 = complete death
# Summary of the method: as §1
# [7] = tested on: johnsongrass (Sorghum halepense, SORHA); experiment: as above; settings: rated 14 days after application, 0 = no damage, 100 = complete death
# Summary of the method: as §1
# [8] = tested on: lambsquarters (Chenopodium album, CHEAL); experiment: as above; settings: rated 14 days after application, 0 = no damage, 100 = complete death
# Summary of the method: as §1
# [9] = tested on: sicklepod (Cassia obtusifolia, CASOB); experiment: as above; settings: rated 14 days after application, 0 = no damage, 100 = complete death
# Summary of the method: as §1
# [10] = tested on: barnyardgrass (Echinochloa crus-galli, ECHCG); experiment: as above; settings: rated 14 days after application, 0 = no damage, 100 = complete death
# Summary of the method: as §1
# [11] = tested on: upland rice (Oryza sp., var. Tebonnet, RICE); experiment: Post-emerge test, crop safety; settings: post-emerge, 14 days after application, rating scale 0-100
# Summary of the method: as §1
# [12] = tested on: field corn (Zea mays L., var. Dekalb 535, CORN); experiment: Post-emerge test, crop safety; settings: post-emerge, 14 days after application, rating scale 0-100
# Summary of the method: as §1
# [13] = tested on: upland rice (Oryza sp., var. Tebonnet, RICE); experiment: Pre-emerge test, crop safety; settings: rated 14 days after application, 0 = no damage, 100 = complete death
# Summary of the method: (§2)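 Compounds in acetone were track-sprayed at 15-1000 g ai/ha (187 l/ha) on sandy loam pots: pre-emerge one day after seeding, post-emerge at 2-3 leaf stage with 0.25% v/v non-ionic surfactant. Phytotoxicity was rated 14 days later on a 0 (no damage) to 100 (complete death) scale.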
# [14] = tested on: field corn (Zea mays L., var. Dekalb 535, CORN); experiment: Pre-emerge test, crop safety; settings: rated 14 days after application, 0 = no damage, 100 = complete death
# Summary of the method: as §2
# [15] = tested on: velvetleaf (Abutilon theophrasti, ABUTH); experiment: Post-emerge test, greenhouse herbicide activity screening; settings: post-emerge, 14 days after application, rating scale 0-100
# Summary of the method: (§3)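 Visual ratings on a 0-100 scale (0 no damage, 100 all plants dead) were taken at 14 days after treatment. Rates of 15-1000 g ai/ha in acetone, 187 l/ha, were sprayed onto soil one day after planting (pre-emerge) or onto 2-3 leaf plants with 0.25% v/v surfactant (post-emerge).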
# [16] = tested on: large crabgrass (Digitaria sanguinalis, DIGSA); experiment: as above; settings: post-emerge, 14 days after application, rating scale 0-100
# Summary of the method: as §3
# [17] = tested on: common ragweed (Ambrosia artemisizfolia L., AMBEL); experiment: as above; settings: post-emerge, 14 days after application, rating scale 0-100
# Summary of the method: as §3
# [18] = tested on: green foxtail (Setaria viridis, SETVI); experiment: as above; settings: post-emerge, 14 days after application, rating scale 0-100
# Summary of the method: as §3
# [19] = tested on: ivyleaf morningglory (Ipomoea hederacea, IPOHE); experiment: as above; settings: post-emerge, 14 days after application, rating scale 0-100
# Summary of the method: as §3
# [20] = tested on: johnsongrass (Sorghum halepense, SORHA); experiment: as above; settings: post-emerge, 14 days after application, rating scale 0-100
# Summary of the method: as §3
# [21] = tested on: lambsquarters (Chenopodium album, CHEAL); experiment: as above; settings: post-emerge, 14 days after application, rating scale 0-100
# Summary of the method: as §3
# [22] = tested on: sicklepod (Cassia obtusifolia, CASOB); experiment: as above; settings: post-emerge, 14 days after application, rating scale 0-100
# Summary of the method: as §3
# [23] = tested on: barnyardgrass (Echinochloa crus-galli, ECHCG); experiment: as above; settings: post-emerge, 14 days after application, rating scale 0-100
# Summary of the method: as §3
# [24] = tested on: redroot pigweed (Amaranthus retroflexus, AMARE); experiment: as above; settings: post-emerge, 14 days after application, rating scale 0-100
# Summary of the method: as §3
smiles,measurement,setting,value
COc1c(Cl)cc(F)c(-n2c(=O)cc(C(F)(F)F)n(C)c2=O)c1NC(=O)c1c(F)cccc1F [2-47],"Pre-emerge Herbicidal Activity, phytotoxicity rating (0-100), AMARE",[1]; 63 g ai/ha,100
same,"Pre-emerge Herbicidal Activity, phytotoxicity rating (0-100), AMARE",[1]; 250 g ai/ha,100
same,"Pre-emerge Herbicidal Activity, phytotoxicity rating (0-100), ABUTH",[2]; 63 g ai/ha,100
same,"Pre-emerge Herbicidal Activity, phytotoxicity rating (0-100), ABUTH",[2]; 250 g ai/ha,100
same,"Pre-emerge Herbicidal Activity, phytotoxicity rating (0-100), DIGSA",[3]; 63 g ai/ha,100
same,"Pre-emerge Herbicidal Activity, phytotoxicity rating (0-100), DIGSA",[3]; 250 g ai/ha,100
same,"Pre-emerge Herbicidal Activity, phytotoxicity rating (0-100), AMBEL",[4]; 63 g ai/ha,50
same,"Pre-emerge Herbicidal Activity, phytotoxicity rating (0-100), AMBEL",[4]; 250 g ai/ha,100
same,"Pre-emerge Herbicidal Activity, phytotoxicity rating (0-100), SETVI",[5]; 63 g ai/ha,100
same,"Pre-emerge Herbicidal Activity, phytotoxicity rating (0-100), SETVI",[5]; 250 g ai/ha,100
same,"Pre-emerge Herbicidal Activity, phytotoxicity rating (0-100), IPOHE",[6]; 63 g ai/ha,100
same,"Pre-emerge Herbicidal Activity, phytotoxicity rating (0-100), IPOHE",[6]; 250 g ai/ha,100
same,"Pre-emerge Herbicidal Activity, phytotoxicity rating (0-100), SORHA",[7]; 63 g ai/ha,60
same,"Pre-emerge Herbicidal Activity, phytotoxicity rating (0-100), SORHA",[7]; 250 g ai/ha,90
same,"Pre-emerge Herbicidal Activity, phytotoxicity rating (0-100), CHEAL",[8]; 63 g ai/ha,100
same,"Pre-emerge Herbicidal Activity, phytotoxicity rating (0-100), CHEAL",[8]; 250 g ai/ha,100
same,"Pre-emerge Herbicidal Activity, phytotoxicity rating (0-100), CASOB",[9]; 63 g ai/ha,90
same,"Pre-emerge Herbicidal Activity, phytotoxicity rating (0-100), CASOB",[9]; 250 g ai/ha,100
same,"Pre-emerge Herbicidal Activity, phytotoxicity rating (0-100), ECHCG",[10]; 63 g ai/ha,0
same,"Pre-emerge Herbicidal Activity, phytotoxicity rating (0-100), ECHCG",[10]; 250 g ai/ha,99
same,phytotoxicity rating RICE,[11]; 63 g ai/ha,20
same,phytotoxicity rating RICE,[11]; 250 g ai/ha,45
same,phytotoxicity rating CORN,[12]; 63 g ai/ha,10
same,phytotoxicity rating CORN,[12]; 250 g ai/ha,15
same,"Pre-emerge phytotoxicity rating (0-100), crop damage, RICE",[13]; 63 g ai/ha,70
same,"Pre-emerge phytotoxicity rating (0-100), crop damage, RICE",[13]; 250 g ai/ha,95
same,"Pre-emerge phytotoxicity rating (0-100), crop damage, CORN",[14]; 63 g ai/ha,40
same,"Pre-emerge phytotoxicity rating (0-100), crop damage, CORN",[14]; 250 g ai/ha,99
same,phytotoxicity rating ABUTH,[15]; 63 g ai/ha,100
same,phytotoxicity rating ABUTH,[15]; 250 g ai/ha,100
same,phytotoxicity rating DIGSA,[16]; 63 g ai/ha,0
same,phytotoxicity rating DIGSA,[16]; 250 g ai/ha,0
same,phytotoxicity rating AMBEL,[17]; 63 g ai/ha,50
same,phytotoxicity rating AMBEL,[17]; 250 g ai/ha,90
same,phytotoxicity rating SETVI,[18]; 63 g ai/ha,20
same,phytotoxicity rating SETVI,[18]; 250 g ai/ha,30
same,phytotoxicity rating IPOHE,[19]; 63 g ai/ha,70
same,phytotoxicity rating IPOHE,[19]; 250 g ai/ha,100
same,phytotoxicity rating SORHA,[20]; 63 g ai/ha,0
same,phytotoxicity rating SORHA,[20]; 250 g ai/ha,0
same,phytotoxicity rating CHEAL,[21]; 63 g ai/ha,80
same,phytotoxicity rating CHEAL,[21]; 250 g ai/ha,100
same,phytotoxicity rating CASOB,[22]; 63 g ai/ha,70
same,phytotoxicity rating CASOB,[22]; 250 g ai/ha,100
same,phytotoxicity rating ECHCG,[23]; 63 g ai/ha,0
same,phytotoxicity rating ECHCG,[23]; 250 g ai/ha,10
same,phytotoxicity rating AMARE,[24]; 63 g ai/ha,90
same,phytotoxicity rating AMARE,[24]; 250 g ai/ha,100
